# Measured values as given in US12616203B2, “Use of 3-isoxazolidinones compounds as selective herbicides” (FMC Corporation, priority 2014, dated 2026).
# Columns and labels:
# Blackgrass = assay: Ex34 PRE 2,4-DC + napropamide, % control, Colby; format: in vivo, Alopecurus myosuroides; conditions: 28 DAT
# Description: (§1) Thereafter flats were watered and fertilized routinely.
# barnyardgrass (BG) = assay: Ex5 PRE greenhouse, % control; format: in vivo, Echinochloa crus-galli; conditions: 28 DAT, g ai/ha by row: r10-26 2,4-DC 50/100/200 (3 rows each) + mesotrione 25/50/100 (cycling)
# Procedure: Test compositions containing 2,4-DC Example 1C and mesotrione (Callisto® Herbicide, 40% active ingredient, Syngenta) and mixtures of 2-(2,4-dichlorophenyl)methyl-4,4-dimethyl-3-isoxazolidinone and mesotrione, were diluted with water to provide the appropriate test rate concentration.
# The test weeds were barnyardgrass (BG) (Echinochloa crus-galli), jimsonweed (PA) (Datura stramonium), velvetleaf (VL) (Abutilon theophrasti), common cockelbur (CC) (Xanthium strumarium) and hairy beggarticks (HB) (Bidens pilosa). Crops included in the evaluation were field corn and sorghum.
# For pre-emergence testing, four disposable fiber flats (6″ by 10″) for each rate of application of each herbicide solution were filled with top soil, to which seeds of each species were planted in furrows made by a template pressed on the top of the soil. The furrows with seeds were covered with soil and were watered well before application of the test compounds. Flats designated for treatment were placed in a spray chamber having a static platform and a movable sprayer and height of the spray nozzle was 10.5 inches above the soil level. Once the sprayer was calibrated using water for spray volume of 30 gallons per acre, flats were sprayed with sprayer at a speed to receive a coverage equivalent of 30 gallons per acre.
# The application rates are those shown in Table 4 below for the individual herbicidal solutions and the herbicide compositions of the present invention. The pre-emergence flats were immediately placed in the greenhouse and watered lightly after treatment. Thereafter they were regularly watered and fertilized for the duration of the test. The control of weeds and injury to crops was evaluated in each experimental test at 28 days after treatment (DAT). […] Percent control was determined by a method similar to the 0 to 100 rating system disclosed in “Research Methods in Weed Science,” 2nd ed., B. Truelove, Ed.; Southern Weed Science Society; Auburn University, Auburn, Ala., 1977.
# Yellow nutsedge = assay: Ex32 PRE 2,4-DC + pyroxasulfone + sulfentrazone, % control 28 DAT, Colby; format: in vivo, Cyperus esculentus
# Description: (§2) Treatments were applied at the time of planting to Italian ryegrass, green foxtail, littleseed canarygrass, wild oat, quackgrass, dandelion, common chickweed, white clover, yellow nutsedge, redroot pigweed, field bindweed, canola, and wheat. […] Flats were watered and fertilized routinely after treatment application.
# Wild oat = assay: as above; format: in vivo, Avena fatua
# Description: as §2
# Wild buckwheat = assay: Ex34 PRE 2,4-DC + napropamide, % control, Colby; format: in vivo, Polygonum convolvulus; conditions: 28 DAT
# Description: as §1
# weeds; Sugarcane (CTC20) = assay: Ex23 PRE greenhouse; conditions: 28 DAT, weed and rate in the words
# weeds; Wheat and canola [1] = assay: Ex44 PRE greenhouse; format: in vivo; conditions: weed and rate in the words
# Description: Redroot pigweed (Amaranth retroflexus, AMARE), Italian ryegrass (Lolium perenne. multiflorum, LOLMU), wild mustard (Sinapis arvensis, SINAR), annual bluegrass (Poa annua POAAN), wild oat (Avena fatua, AVEFA), blackgrass (Alopecurus myosuroides, ALOMY), common lambsquarters (Chenopodium album, […] (Phalaris minor, PHAMI), common chickweed (Stellaria media, STEME), corn poppy (Papaver rhoeas, PAPRH) and silky […]). Crops tested included wheat and canola. […] Treatments were applied before the emergence of redroot pigweed, Italian ryegrass, wild oat, blackgrass, littleseed canarygrass, common chickweed, common lambsquarters, corn poppy, wild mustard, annual bluegrass, silky […], canola, and wheat. […] Flats were watered and fertilized routinely after treatment application.
# weeds; Wheat and canola [2] = assay: Ex27 PRE greenhouse; format: in vivo; conditions: weed and rate in the words
# Description: The weeds tested in this study were Italian ryegrass (Lolium perenne. multiflorum, LOLMU), wild mustard (Sinapis arvensis, SINAR), annual bluegrass (Poa annua POAAN), wild oat (Avena fatua, AVEFA), blackgrass (Alopecurus myosuroides, ALOMY), common lambsquarters (Chenopodium album […] (Phalaris minor, PHAMI), common chickweed (Stellaria media, STEME), corn poppy (Papaver rhoeas PAPRH). The crops tested were Wheat and canola. […] Treatments were applied before the emergence of Italian ryegrass, wild oat, blackgrass, littleseed canarygrass, common chickweed, common lambsquarters, corn poppy, wild mustard, annual bluegrass, canola, and wheat. […] Flats were watered and fertilized routinely after treatment application. […] Wheat and corn poppy were rated at 14 and 21 DAT only.
# weeds = assay: Ex21 PRE greenhouse; format: in vivo; conditions: 28 DAT, weed and rate in the words
# Description: 2,4 DC (36.7% CS) was applied PRE at 0, 125, 170, 210, or 250 g ai/ha alone or as a tank-mix with S-metolachlor (Dual II Magnum®, 82.4%) at 0, 267, 534, 801, or 1070 g ai/ha. Pyroxasulfone plus fluthiacet-methyl (Anthem™, 23.3%) applied at 169.9 g ai/ha, and the tank-mix of mesotrione (Callisto®, 40%) at 123 g plus S-metolachlor (Dual II Magnum®, 82.4%) at 1252 g were included as standards for comparison. […] Thereafter flats were watered and fertilized routinely. Each treatment was replicated three times.
# [3] = system: weeds; sweet corn, yellow corn, and sorghum; assay: Ex31 PRE greenhouse; format: in vivo; conditions: weed and rate in the words
# Description: Flats were watered and fertilized routinely after treatment application.
# Sorghum = assay: Ex46 PRE sorghum injury 7, 14, 21, 28 DAT; conditions: rate in the words
# Procedure: Treatments were applied to sorghum at the time of planting using Pennington soil. Each treatment was replicated four times. Soil was watered before and after application for herbicide activation. Plants were watered and fertilized routinely. […] Visual percent crop injury was recorded at 7, 14, 21, and 28 days after treatment using a scale of 0 (no injury) to 100 (complete plant death).
smiles,measurement,setting,value
"CC1(C)CON(Cc2ccc(Cl)cc2Cl)C1=O [2,4-DC, 2-(2,4-dichlorophenyl)methyl-4,4-dimethyl-3-isoxazolidinone]",X,"Blackgrass; 2,4-DC alone 31 g ai/ha",10%
same,X,"Blackgrass; 2,4-DC alone 63 g ai/ha",18%
same,X,"Blackgrass; 2,4-DC alone 125 g ai/ha",84%
same,X,"Blackgrass; 2,4-DC alone 250 g ai/ha",93%
same,X,"Blackgrass; 2,4-DC alone 375 g ai/ha",97%
same,% Control BG,"barnyardgrass (BG); r28-30 2,4-DC 50/100/200, r31-33 mesotrione 25/50/100, 50 g ai/ha",97%
same,% Control BG,"barnyardgrass (BG); r28-30 2,4-DC 50/100/200, r31-33 mesotrione 25/50/100, 100 g ai/ha",99%
same,X,"Yellow nutsedge; 2,4-DC alone 50 g ai/ha",0%
same,X,"Yellow nutsedge; 2,4-DC alone 100 g ai/ha",0%
same,X,"Yellow nutsedge; 2,4-DC alone 200 g ai/ha",17%
same,X,"Wild oat; 2,4-DC alone 50 g ai/ha",28%
same,X,"Wild oat; 2,4-DC alone 100 g ai/ha",28%
same,X,"Wild oat; 2,4-DC alone 200 g ai/ha",67%
same,X,"Wild buckwheat; 2,4-DC alone 31 g ai/ha",10%
same,X,"Wild buckwheat; 2,4-DC alone 63 g ai/ha",8%
same,X,"Wild buckwheat; 2,4-DC alone 125 g ai/ha",8%
same,X,"Wild buckwheat; 2,4-DC alone 250 g ai/ha",23%
same,X,"Wild buckwheat; 2,4-DC alone 375 g ai/ha",37%
same,weed control in words,weeds; Sugarcane (CTC20),applied alone at ≥500 g ai/ha controlled (≥85% injury) large crabgrass and redroot pigweed
same,weed control in words,weeds; Wheat and canola [1],"alone provided control of corn poppy at ≥100 g, Italian ryegrass at ≥200 g, lambsquarters, 400 g, blackgrass at ≥200 g, silky windgrass at ≥100 g and chickweed at all rates"
same,weed control in words,weeds; Wheat and canola [2],provided good control of blackgrass at 375 g; controlled Italian ryegrass at ≥125 g and common chickweed at all rates
same,weed control in words,weeds,"applied alone controlled (≥85% injury) common chickweed at all rates, bamyardgrass at ≥210 g ai/ha, and green foxtail at 250 g"
same,weed control in words,[3],alone did not control any weeds except barnyardgrass
same,sorghum safety in words,Sorghum,safe on sorghum at rates ranging from 31 to 125 g ai/ha irrespective of rating timings
